From patent US7355051B2, “Piperdine-amino-benzimidazole derivatives as inhibitors of respiratory syncytial virus replication” (Tibotec Pharmaceuticals, priority 2003, dated 2008)
Like-named read-outs stand apart in the source and are kept apart here.

How the values were obtained:
[1] = tested on: Respiratory Syncytial Virus; test: microbe, parasite or virus in culture; format: cell-based; conditions: for EC50: human respiratory syncytial virus, 168 h
Source text: The percent protection against cytopathology caused by viruses (antiviral activity or EC50) achieved by tested compounds and their cytotoxicity (CC50) are both calculated from dose-response curves. The selectivity of the antiviral effect is represented by the selectivity index (SI), calculated by dividing the CC50 (cytotoxic dose for 50% of the cells) by the EC50 (antiviral activity for 50% of the cells).
Automated tetrazolium-based […] assays were used for determination of EC50 and CC50 of test compounds. Flat-bottom, 96-well plastic microtiter trays were filled with 180 μl of Eagle's Basal Medium, supplemented with 5% FCS (0% for FLU) and 20 mM Hepes buffer. Subsequently, stock solutions (7.8× final test concentration) of compounds were added in 45 μl volumes to a series of triplicate wells so as to allow simultaneous evaluation of their effects on virus- and mock-infected cells. Five five-fold dilutions were made directly in the microtiter trays using a robot system. Untreated virus controls, and HeLa cell controls were included in each test. Approximately 100 TCID50 of Respiratory Syncytial Virus was added to two of the three rows in a volume of 50 μl. The same volume of medium was added to the third row to measure the cytotoxicity of the compounds at the same concentrations as those used to measure the antiviral activity. After two hours of incubation, a suspension (4×10^5 cells/ml) of HeLa cells was added to all wells in a volume of 50 μl. The cultures were incubated at 37° C. in a 5% CO2 atmosphere. Seven days after infection the cytotoxicity and the antiviral activity was examined spectrophotometrically. To each well of the microtiter tray, 25 μl of a solution of MTT (3-(4,5-dimethylthiazol-2-yl)-2,5-diphenyltetrazolium bromide) was added. The trays were further incubated at 37° C. for 2 hours, after which the medium was removed from each cup. Solubilization of the formazan crystals was achieved by adding 100 μl 2-propanol. Complete dissolution of the formazan crystals were obtained after the trays have been placed on a plate shaker for 10 min. Finally, the absorbances were read in an eight-channel computer-controlled photometer (Multiskan MCC, Flow Laboratories) at two wavelengths (540 and 690 nm). The absorbance measured at 690 nm was automatically subtracted from the absorbance at 540 nm, so as to eliminate the effects of non-specific absorption.

[2] = Table 3, pEC50 (−log of EC50 in molar units), RSV-infected HeLa cells, MTT read-out seven days after infection, read-out: Activity (converted)
[3] = Table 1, pEC50 (−log of EC50 in molar units), RSV-infected HeLa cells, MTT read-out seven days after infection, read-out: Activity (converted)

| Compound | EC50 [1, 2] [µM] | melting point [°C] | also measured |
| --- | --- | --- | --- |
| Cc1ccc(O)c(Cn2c(NC3CCN(CCN4CCCC4)CC3)nc3c(C)cccc32)n1 [Compound 18, 6-Methyl-2-{4-methyl-2-[1-(2-pyrrolidin-1-yl-ethyl)-piperidin-4-ylamino]-benzoimidazol-1-ylmethyl}-pyridin-3-ol] | 0.01 | 225 |  |
| 6-methyl-2-[4-methyl-2-(1-methyl-piperidin-4-ylamino)-benzoimidazol-1-ylmethyl]-pyridin-3-ol [Compound 34] |  |  | Activity ([1]; Table 3, pEC50 (−log of EC50 in molar units), RSV-infected HeLa cells, MTT read-out seven days after infection): 6.8 |
| Cc1ccc(O)c(Cn2c(NC3CCN(CCCS(N)(=O)=O)CC3)nc3c(C)cccc32)n1 [Compound 19, 3-{4-[1-(3-hydroxy-6-methyl-pyridin-2-ylmethyl)-4-methyl-1H-benzoimidazol-2-ylamino]-piperidin-1-yl}-propane-1-sulfonic acid amide] | 0.0126 | 250 |  |
| Cc1cc(C)c2nc(NC3CCN(CCO)CC3)n(Cc3nc(C)ccc3O)c2c1 [Compound 2, 2-{2-[1-(2-hydroxy-ethyl)-piperidin-4-ylamino]-4,6-dimethyl-benzoimidazol-1-ylmethyl}-6-methyl-pyridin-3-ol] |  | 177 | EC50 [1, 3]: 0.00316 µM |
| Cc1cc(C)c2nc(NC3CCN(CCC(N)=O)CC3)n(Cc3nc(C)ccc3O)c2c1 |  | 212 |  |
| CCOC(=O)CCN1CCC(Nc2nc3c(C)cccc3n2Cc2nc(C)ccc2O)CC1 [Compound 32, 3-{4-[1-(3-Hydroxy-6-methyl-pyridin-2-ylmethyl)-4-methyl-1H-benzoimidazol-2-ylamino]-piperidin-1-yl}-propionic acid ethyl ester] | 0.158 | 226 |  |
| Cc1cc(C)c2nc(NC3CCN(CCCO)CC3)n(Cc3nc(C)ccc3O)c2c1 [Compound 4, 2-{2-[1-(3-hydroxy-propyl)-piperidin-4-ylamino]-4,6-dimethyl-benzoimidazol-1-ylmethyl}-6-methyl-pyridin-3-ol] |  | 209 | EC50 [1, 3]: 0.00794 µM |
| Cc1ccc(O)c(Cn2c(NC3CCN(CCOC(N)=O)CC3)nc3c(C)cccc32)n1 [Compound 37, Carbamic acid 2-{4-[1-(3-hydroxy-6-methyl-pyridin-2-ylmethyl)-4-methyl-1H-benzoimidazol-2-ylamino]-piperidin-1-yl}-ethyl ester] | 0.158 | 222 |  |
| Cc1ccc(O)c(Cn2c(NC3CCN(CCC(N)=O)CC3)nc3c(C)cccc32)n1 [Compound 27, 3-{4-[1-(3-Hydroxy-6-methyl-pyridin-2-ylmethyl)-4-methyl-1H-benzoimidazol-2-ylamino]-piperidin-1-yl}-propionamide] | 0.0501 | 258 |  |
| Cc1ccc(O)c(Cn2c(NC3CCN(CC(O)C(C)C)CC3)nc3c(C)cccc32)n1 (stereo not drawn) [Compound 35, 2-{2-[1-(2-hydroxy-3-methyl-butyl)-piperidin-4-ylamino]-4-methyl-benzoimidazol-1-ylmethyl}-6-methyl-pyridin-3-ol] | 0.158 | 230 |  |
| Cc1cc(C)c2c(c1)nc(NC1CCN(CCO)CC1)n2Cc1nc(C)ccc1O [Compound 15, 2-{2-[1-(2-hydroxy-ethyl)-piperidin-4-ylamino]-5,7-dimethyl-benzoimidazol-1-ylmethyl}-6-methyl-pyridin-3-ol] |  | 143 | EC50 ([1]; Table 2, pEC50 (−log of EC50 in molar units), RSV-infected HeLa cells, MTT read-out seven days after infection, read-out: Activity (converted)): 0.398 µM |
| COc1ccc(OCC(O)CN2CCC(Nc3nc4c(C)cccc4n3Cc3nc(C)ccc3O)CC2)cc1 (stereo not drawn) [Compound 41, 2-(2-{1-[2-hydroxy-3-(4-methoxy-phenoxy)-propyl]-piperidin-4-ylamino}-4-methyl-benzoimidazol-1-ylmethyl)-6-methyl-pyridin-3-ol] | 0.316 | 227 |  |
| Cc1ccc(O)c(Cn2c(NC3CCN(CCOC(=O)Cc4ccccc4)CC3)nc3c(C)cccc32)n1 [Compound 24, Phenyl-acetic acid 2-{4-[1-(3-hydroxy-6-methyl-pyridin-2-ylmethyl)-4-methyl-1H-benzoimidazol-2-ylamino]-piperidin-1-yl}-ethyl ester] |  | 207 | EC50 ([1]; HeLa, read-out: Activity): 0.0316 µM |
| CCOC(=O)CCN1CCC(Nc2nc3c(C)cc(C)cc3n2Cc2nc(C)ccc2O)CC1 [Compound 10, 3-{4-[1-(3-Hydroxy-6-methyl-pyridin-2-ylmethyl)-4,6-dimethyl-1H-benzoimidazol-2-ylamino]-piperidin-1-yl}-propionic acid ethyl ester] |  | 172 | EC50 [1, 3]: 0.0794 µM |
| Cc1cc(C)c2nc(NC3CCN(CCCS(N)(=O)=O)CC3)n(Cc3nc(C)ccc3O)c2c1 [Compound 1, 3-{4-[1-(3-hydroxy-6-methyl-pyridin-2-ylmethyl)-4,6-dimethyl-1H-benzoimidazol-2-ylamino]-piperidin-1-yl}-propane-1-sulfonic acid amide] |  | 180 | EC50 [1, 3]: 0.002 µM |
| Cc1ccc(O)c(Cn2c(NC3CCN(CCC(=O)O)CC3)nc3c(C)cccc32)n1.Cl [Compound 33, 3-{4-[1-(3-hydroxy-6-methyl-pyridin-2-ylmethyl)-4-methyl-1H-benzoimidazol-2-ylamino]-piperidin-1-yl}-propionic acid hydrochloride salt] | 0.158 | 245 |  |
